A short description of test [1]: (§1) HIV Cell Culture Assay: MT-2 cells and 293T cells were obtained from the NIH AIDS Research and Reference Reagent Program. MT-2 cells were propagated in RPMI 1640 media supplemented with 10% heat-inactivated fetal bovine serum, […]. The 293T cells were propagated in DMEM media supplemented with 10% heat-inactivated fetal bovine serum (FBS), 100 units/mL penicillin G and 100 μg/mL streptomycin. The proviral DNA clone of NL4-3 was obtained from the NIH AIDS Research and Reference Reagent Program. A recombinant NL4-3 virus, in which a section of the nef gene from NL4-3 was replaced with the Renilla luciferase gene, was used as a reference virus. In addition, residue Gag P373 was converted to P373S. Briefly, the recombinant virus was prepared by transfection of the altered proviral clone of NL4-3. Transfections were performed in 293T cells using LipofectAMINE PLUS from Invitrogen (Carlsbad, Calif.), according to manufacturer's instruction. The virus was titered in MT-2 cells using luciferase enzyme activity as a marker. Luciferase was quantitated using the Dual Luciferase kit from Promega (Madison, Wis.), with modifications to the manufacturer's protocol. The diluted Passive Lysis solution was pre-mixed with the re-suspended Luciferase Assay Reagent and the re-suspended Stop & Glo Substrate (2:1:1 ratio). Fifty (50) μL of the mixture was added to each aspirated well on assay plates and luciferase activity was measured immediately on a Wallac TriLux (Perkin-Elmer). Antiviral activities of inhibitors toward the recombinant virus were quantified by measuring luciferase activity in cells infected for 4-5 days with NLRluc recombinants in the presence serial dilutions of the inhibitor. It counts as cell-based.

The nature of test [2]: as §1. It counts as cell-based. This is another data set of the same source.

pEC50: −log10 of the molar value.

For 17 molecules, EC50 results are on record in ChEMBL document CHEMBL5726774, “Triterpenoids with HIV maturation inhibitory activity” (2019).

As to `C=C(C)[C@@H]1CC[C@]2(NCCC3(O)COC3)CC[C@]3(C)[C@H](CC[C@@H]4[C@@]5(C)CC=C(C6=CC[C@@](CF)(C(=O)O)CC6)C(C)(C)[C@@H]5CC[C@]43C)[C@@H]12`, the pEC50 in test [1] is greater than 7.30; in test [2], less than 7.30.
The corresponding values for `C=C(C)[C@@H]1CC[C@]2(NCCN3CCS(=O)(=O)CC(C)C3)CC[C@]3(C)[C@H](CC[C@@H]4[C@@]5(C)CC=C(C6=CC[C@](CF)(OC=O)CC6)C(C)(C)[C@@H]5CC[C@]43C)[C@@H]12` (some centres not stated) are greater than 7.30 and less than 7.30.
Regarding `C=C(C)[C@@H]1CC[C@]2(NCCN3CCS(=O)(=O)CC3)CC[C@]3(C)[C@H](CC[C@@H]4[C@@]5(C)CC=C(C6=CC[C@@](CF)(OC=O)CC6)C(C)(C)[C@@H]5CC[C@]43C)[C@@H]12`, the pEC50 is 8.52 in test [1] and 6.77 in test [2].
For `C=C(C)[C@@H]1CC[C@]2(NCCC3(O)COC3)CC[C@]3(C)[C@H](CC[C@@H]4[C@@]5(C)CC=C(C6=CC[C@](CF)(C(=O)O)CC6)C(C)(C)[C@@H]5CC[C@]43C)[C@@H]12`, the pEC50 is greater than 7.30 in test [1] and less than 7.30 in test [2].
On the same counts, the results for `C=C(C)[C@@H]1CC[C@]2(NCC[C@]3(O)CC[C@@H](S(C)(=O)=O)CC3)CC[C@]3(C)[C@H](CC[C@@H]4[C@@]5(C)CC=C(C6=CC[C@@](CF)(C(=O)O)CC6)C(C)(C)[C@@H]5CC[C@]43C)[C@@H]12` are greater than 7.30 and less than 7.30.
On the same counts, the results for `C=C(C)[C@@H]1CC[C@]2(NCC[C@]3(O)CC[C@H](S(C)(=O)=O)CC3)CC[C@]3(C)[C@H](CC[C@@H]4[C@@]5(C)CC=C(C6=CC[C@](CF)(C(=O)O)CC6)C(C)(C)[C@@H]5CC[C@]43C)[C@@H]12` are greater than 7.30 and less than 7.30.
On the same counts, the results for `C=C(C)[C@@H]1CC[C@]2(NCCN3CCS(=O)(=O)CC3C(=O)OCC)CC[C@]3(C)[C@H](CC[C@@H]4[C@@]5(C)CC=C(C6=CC[C@@](CF)(C(=O)O)CC6)C(C)(C)[C@@H]5CC[C@]43C)[C@@H]12` (some centres not stated) are greater than 7.30 and greater than 7.30.
For `C=C(C)[C@@H]1CC[C@]2(NCCN3CCC(S(C)(=O)=O)CC3)CC[C@]3(C)[C@H](CC[C@@H]4[C@@]5(C)CC=C(C6=CCC(F)(OC=O)CC6)C(C)(C)[C@@H]5CC[C@]43C)[C@@H]12` (some centres not stated), in test [1], the pEC50 was 8.40.
Still for that read-out and setting: the result for `C=C(C)[C@@H]1CC[C@]2(NCCN3CCS(=O)(=O)CC3)CC[C@]3(C)[C@H](CC[C@@H]4[C@@]5(C)CC=C(C6=CCC(C)(OC=O)CC6)C(C)(C)[C@@H]5CC[C@]43C)[C@@H]12` (some centres not stated) reads 8.70.
Consider `C=C(C)[C@@H]1CC[C@]2(NCCC(O)(C3CC3)C3CC3)CC[C@]3(C)[C@H](CC[C@@H]4[C@@]5(C)CC=C(C6=CC[C@](CF)(C(=O)OCc7ccccc7)CC6)C(C)(C)[C@@H]5CC[C@]43C)[C@@H]12`, for which the values for the pEC50 in test [1] and in test [2] were greater than 7.30 and less than 7.30, respectively.
On the same counts, the results for `CC(C)[C@@H]1CC[C@]2(NCCN3CCS(=O)(=O)CC3)CC[C@]3(C)[C@H](CC[C@@H]4[C@@]5(C)CC=C(C6CCC(CF)(C(=O)O)CC6)C(C)(C)[C@@H]5CC[C@]43C)[C@@H]12` (some centres not stated) are greater than 7.30 and less than 7.30.
On to `C=C(C)[C@@H]1CC[C@]2(NCCN3CCS(=O)(=O)CC(C)C3)CC[C@]3(C)[C@H](CC[C@@H]4[C@@]5(C)CC=C(C6=CC[C@@](CF)(OC=O)CC6)C(C)(C)[C@@H]5CC[C@]43C)[C@@H]12` (some centres not stated), for which the figures for the pEC50 in test [1] and in test [2] were greater than 7.30 and less than 7.30, respectively.
The corresponding values for `C=C(C)[C@@H]1CC[C@]2(NCCN3CC(C)S(=O)(=O)C(C)C3)CC[C@]3(C)[C@H](CC[C@@H]4[C@@]5(C)CC=C(C6=CC[C@](CF)(OC=O)CC6)C(C)(C)[C@@H]5CC[C@]43C)[C@@H]12` (some centres not stated) are greater than 7.30 and less than 7.30.
For `C=C(C)[C@@H]1CC[C@]2(NCCN3CC(C)S(=O)(=O)C(C)C3)CC[C@]3(C)[C@H](CC[C@@H]4[C@@]5(C)CC=C(C6=CC[C@@](CF)(OC=O)CC6)C(C)(C)[C@@H]5CC[C@]43C)[C@@H]12` (some centres not stated), the values for the pEC50 in test [1] and in test [2] were greater than 7.30 and less than 7.30, respectively.
The corresponding values for `C=C(C)[C@@H]1CC[C@]2(NCCN3CCS(=O)(=O)CC3)CC[C@]3(C)[C@H](CC[C@@H]4[C@@]5(C)CC=C(C6=CC[C@](CF)(OC=O)CC6)C(C)(C)[C@@H]5CC[C@]43C)[C@@H]12` are 8.70 and 6.11.
The corresponding values for `C=C(C)[C@@H]1CC[C@]2(NC(CN3CCS(=O)(=O)CC3)C(F)(F)F)CC[C@]3(C)[C@H](CC[C@@H]4[C@@]5(C)CC=C(C6=CC[C@](CF)(C(=O)O)CC6)C(C)(C)[C@@H]5CC[C@]43C)[C@@H]12` (some centres not stated) are less than 7.30 and less than 7.30.
The corresponding values for `C=C(C)[C@@H]1CC[C@]2(NCCN3CCS(=O)(=O)CC3)CC[C@]3(C)[C@H](CC[C@@H]4[C@@]5(C)CC=C(C6=CCC(CF)(OC=O)CC6)C(C)(C)[C@@H]5CC[C@]43C)[C@@H]12` (some centres not stated) are 8.70 and 6.68.
